# Measurements reported in patent US10034828B2, “Hair treatment systems and methods using peptides and other compositions” (priority 2013, dated 2018).
# What was measured:
# [1] = Nitric oxide absorption by carriers (weight gain on bubbling NO gas); format: physicochemical; conditions: NO gas bubbled 40 hr, 25 ° C.
# Experimental: This example illustrates one technique for preparing a composition in accordance with one embodiment of the invention. An accurate amount of a carrier (HNC 167-62) (see below) was introduced into a system. The carrier weight used in these experiments was approximately 250 g and the vessel size was 500 ml. The vessel was equipped with a mechanical stirrer, gas inlet, and gas outlet and was previously purged with argon for about an hour. The temperature of the carrier was kept at about 25-30° C. NO gas regulated at 5 psi (1 psi is about 6,900 Pa) and was then introduced at a controlled rate of about 1 bubble/s with continuous stirring. […] After 6 hours, the weight of the carrier had increased by 0.15%, by 12 hours by 0.25%, and by 24 hours by 0.56%. These increases in weight were believed to be significant considering the relative small molecular weight of NO versus the carrier. […] The carrier also can solidify upon cooling if the carrier is initially a solid at lower temperature.
# Each carrier was taken in a 500 mL three necked flask equipped with a mechanical stirrer, gas inlet and a gas outlet. The system was purged with argon for one hour at room temperature (25° C.). Then nitric oxide gas was bubbled into the system. Then, nitric oxide gas was bubbled through carrier for stipulated amount of time. The changes in weight and color were noted. […]
# [2] = Carrying of TRH peptide by carrier formulations; format: physicochemical; conditions: TRH concentration of 5.0 mg/cc
# Description: Any of the above compositions are effective as carriers for peptides and nitric oxide.
# [3] = test system: micro-capillary blood flow to skin; assay: Laser Doppler capillary blood flow in humans, 10,000 ppm NO in closed Hilltop chamber (Example 5); format: in vivo, human; conditions: applied to the skin at 1/10% in alcohol
# Description: The formulation used in these studies contained nitric oxide dispersed in a lipid matrix. […] Nitric oxide is a very rapid acting molecule, and these studies used a system that employed laser Doppler with a covered chamber. The formulation was placed into the chamber and then attached to the skin by an adhesive layer on the covering. This provided a stable measuring device as determined by multiple normal evaluations of the capillary blood flow without treatment of nitric oxide.
# A known positive control, methyl nicotinate, was applied to the skin at a concentration of 1/10% in alcohol. […] The vascular dynamics are such that when the blood vessels dilate physical parameters follow Bernoulli's law. […] The laser Doppler device accurately measured these parameters.
# In these studies, the participants were healthy females aged 30 to 55 years. They were in good health as determined by the medical history and were not taking any prescription medications. All study participants read and signed the informed consent statement prior to any study procedures being performed. […]
# A Moor Instruments DRT4 Laser Doppler Blood Flow Monitor (Devon, England) was used in these studies. The laser Doppler technique measured blood flow in the microcapillaries of the skin that are close to the skin surface and the blood flow in underlying arterioles and venules that help to regulate skin temperature. […]
# [4] = test system: capillary circulation of the skin; assay: Laser Doppler circulation study in five human subjects (Example 8); format: in vivo; conditions: positive control formulation containing 0.1% methyl nicotinate
# Description: This example illustrates delivery of nitric oxide formulations to five human subjects, using procedures and formulations similar to those discussed in Example 5. Each person served as their own control for the testing. A Moor Instruments Laser Doppler was used to determine circulation. […] The formulations used produce positive, almost immediate results when applied to the skin which, in these studies, was manifested by vasodilatation of the cutaneous vascular system.
# For each subject, the following creams were applied: a negative control formulation (containing no NO), 0.010 gram of a 10,000 ppm NO formulation, 0.020 gram of a 10,000 ppm NO formulation, and a positive control formulation containing 0.1% methyl nicotinate. The formulations were prepared using procedures similar to those discussed in Example 1.
compound,measurement,setting,value
"OCCCO [1,3-Propanediol, 1,3-propanediol]",% Wt. gain,[1],0.09%
same,Wt. Gain g,[1],0.16 g
"NC(=O)[C@@H]1CCCN1C(=O)[C@H](Cc1cnc[nH]1)NC(=O)[C@@H]1CCC(=O)N1 [TRH, thyrotropin-releasing hormone]","carrying of the peptide by formulations HNC 156-43, HNC 156-50, HNC 156-47, HNC 159-136",[2],effectively carried
COC(=O)c1cccnc1 [methyl nicotinate],laser Doppler response to positive control,[3],rapid response typical of the vasodilator
same,vasodilatation,[4],vasodilatation was observed
